Measurements: ChEMBL document CHEMBL5696443 (Clin Cancer Res, 2016)
Activity calls are given as the source filed them. No cut-off for these calls is given here.

Columns and labels:
[1] = biological target: Serine/threonine-protein kinase TAO3 (Homo sapiens) (UniProt Q9H2K8); assay: Inhibition of human TAOK3 at 1 uM using MBP as substrate in presence of [gamma33P]-ATP by HotSpot assay relative to control
[2] = biological target: G protein-coupled receptor kinase 5 (Homo sapiens) (UniProt P34947); assay: Inhibition of human GRK5 at 1 uM using casein as substrate in presence of [gamma33P]-ATP by HotSpot assay relative to control
Chain of G protein-coupled receptor kinase 5 (Homo sapiens) (P34947 whole entry, looked up): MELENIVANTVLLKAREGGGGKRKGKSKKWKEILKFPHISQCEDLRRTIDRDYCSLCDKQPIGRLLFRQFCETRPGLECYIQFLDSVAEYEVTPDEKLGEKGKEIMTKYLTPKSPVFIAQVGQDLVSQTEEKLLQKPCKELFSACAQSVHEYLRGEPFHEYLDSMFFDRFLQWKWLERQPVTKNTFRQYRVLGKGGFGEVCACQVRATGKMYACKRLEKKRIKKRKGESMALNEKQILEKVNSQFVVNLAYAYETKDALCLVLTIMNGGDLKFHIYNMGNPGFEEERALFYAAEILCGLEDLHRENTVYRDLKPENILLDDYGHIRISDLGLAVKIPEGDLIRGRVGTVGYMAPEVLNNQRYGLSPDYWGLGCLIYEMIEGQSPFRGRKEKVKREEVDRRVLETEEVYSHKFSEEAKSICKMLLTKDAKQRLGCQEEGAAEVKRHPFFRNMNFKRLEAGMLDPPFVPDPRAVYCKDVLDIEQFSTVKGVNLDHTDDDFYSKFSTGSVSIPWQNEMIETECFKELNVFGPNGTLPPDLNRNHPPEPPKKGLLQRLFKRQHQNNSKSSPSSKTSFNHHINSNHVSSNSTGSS

[3] = biological target: Serine/threonine-protein kinase pim-2 (Homo sapiens) (UniProt Q9P1W9); assay: Inhibition of human PIM2 at 1 uM using RSRHSSYPAGT as substrate in presence of [gamma33P]-ATP by HotSpot assay relative to control
Chain of Serine/threonine-protein kinase pim-2 (Homo sapiens) (Q9P1W9 whole entry, looked up): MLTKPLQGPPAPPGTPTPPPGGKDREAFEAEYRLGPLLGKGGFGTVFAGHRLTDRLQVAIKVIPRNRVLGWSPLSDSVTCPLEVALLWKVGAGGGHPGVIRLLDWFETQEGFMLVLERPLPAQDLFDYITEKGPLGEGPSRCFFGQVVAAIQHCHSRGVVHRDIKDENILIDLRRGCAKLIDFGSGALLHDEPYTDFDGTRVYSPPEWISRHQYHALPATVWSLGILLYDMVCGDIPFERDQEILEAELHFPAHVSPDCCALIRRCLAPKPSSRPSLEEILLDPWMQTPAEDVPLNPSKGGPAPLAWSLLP

in vitro = conditions: mouse, BaF3 cells
[4] = biological target: Protein kinase C alpha type (Homo sapiens) (UniProt P17252); assay: Inhibition of human PRKCA at 1 uM using ERMRPRKRQGSVRRRV as substrate in presence of [gamma33P]-ATP by HotSpot assay relative to control
Insulin receptor = Insulin receptor (Homo sapiens, UniProt P06213)
Description: Inhibition of INSR phosphorylation in insulin-stimulated human H4-II-E cells preincubated with compound for 30 mins followed by insulin stimulation and measured after 10 mins by immunoblot analysis

[5] = biological target: NT-3 growth factor receptor (Homo sapiens) (UniProt Q16288); assay: Inhibition of human NTRK3 at 1 uM using poly (Glu, Tyr)4:1 as substrate in presence of [gamma33P]-ATP by HotSpot assay relative to control
[6] = biological target: Cyclin-dependent kinase 5/CDK5 activator 1 (Homo sapiens) (UniProt Q00535+Q15078); assay: Inhibition of human CDK5/p35 at 1 uM using RB protein as substrate in presence of [gamma33P]-ATP by HotSpot assay relative to control; assay type: protein-complex assay
Chain of Cyclin-dependent kinase 5/CDK5 activator 1 (Homo sapiens) (Q00535 whole entry): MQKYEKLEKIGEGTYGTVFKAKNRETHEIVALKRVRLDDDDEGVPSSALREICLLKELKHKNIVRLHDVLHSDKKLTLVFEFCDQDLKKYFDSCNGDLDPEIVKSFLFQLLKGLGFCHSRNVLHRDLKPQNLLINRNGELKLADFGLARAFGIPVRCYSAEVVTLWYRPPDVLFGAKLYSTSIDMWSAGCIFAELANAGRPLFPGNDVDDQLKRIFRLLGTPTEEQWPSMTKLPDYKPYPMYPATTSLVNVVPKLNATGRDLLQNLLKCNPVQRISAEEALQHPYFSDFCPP
Chain of Cyclin-dependent kinase 5/CDK5 activator 1 (Homo sapiens) (Q15078 99-307 partner limits assumed): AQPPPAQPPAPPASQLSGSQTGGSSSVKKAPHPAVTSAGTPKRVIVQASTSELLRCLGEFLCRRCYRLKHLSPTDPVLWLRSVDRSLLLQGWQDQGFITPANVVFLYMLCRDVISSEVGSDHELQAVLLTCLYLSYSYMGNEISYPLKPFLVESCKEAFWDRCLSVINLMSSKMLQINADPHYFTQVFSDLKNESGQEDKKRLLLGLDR

[7] = biological target: Mitogen-activated protein kinase kinase kinase 7 (Homo sapiens) (UniProt O43318); assay: Inhibition of human MAP3K7 at 1 uM using casein as substrate in presence of [gamma33P]-ATP by HotSpot assay relative to control
[8] = biological target: Mitogen-activated protein kinase 8 (Homo sapiens) (UniProt P45983); assay: Inhibition of human JNK1a1 at 1 uM using ATF2 as substrate in presence of [gamma33P]-ATP by HotSpot assay relative to control
[9] = biological target: Protein-tyrosine kinase 2-beta (Homo sapiens, UniProt Q14289); assay: Inhibition of human PTK2B using poly (Glu, Tyr)4:1 as substrate in presence of [gamma33P]-ATP by HotSpot assay
[10] = biological target: Dual specificity tyrosine-phosphorylation-regulated kinase 1B (Homo sapiens) (UniProt Q9Y463); assay: Inhibition of human DYRK1B at 1 uM using RRRFRPASPLRGPPK as substrate in presence of [gamma33P]-ATP by HotSpot assay relative to control
Chain of Dual specificity tyrosine-phosphorylation-regulated kinase 1B (Homo sapiens) (Q9Y463 whole entry, looked up): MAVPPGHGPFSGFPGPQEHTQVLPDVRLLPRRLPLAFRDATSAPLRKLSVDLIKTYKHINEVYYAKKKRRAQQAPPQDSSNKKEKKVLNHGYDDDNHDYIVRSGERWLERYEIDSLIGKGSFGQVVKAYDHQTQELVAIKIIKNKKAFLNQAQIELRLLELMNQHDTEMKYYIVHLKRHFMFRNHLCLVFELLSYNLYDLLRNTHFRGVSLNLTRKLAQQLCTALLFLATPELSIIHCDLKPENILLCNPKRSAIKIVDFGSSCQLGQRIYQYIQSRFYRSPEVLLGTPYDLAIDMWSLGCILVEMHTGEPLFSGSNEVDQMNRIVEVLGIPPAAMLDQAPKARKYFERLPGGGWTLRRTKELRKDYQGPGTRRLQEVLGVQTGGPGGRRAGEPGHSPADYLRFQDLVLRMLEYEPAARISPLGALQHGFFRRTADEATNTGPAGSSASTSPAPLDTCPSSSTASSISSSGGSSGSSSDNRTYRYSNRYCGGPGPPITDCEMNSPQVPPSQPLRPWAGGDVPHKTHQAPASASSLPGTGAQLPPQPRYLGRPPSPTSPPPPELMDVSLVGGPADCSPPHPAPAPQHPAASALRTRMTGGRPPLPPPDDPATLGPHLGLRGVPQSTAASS

[11] = biological target: Mitogen-activated protein kinase 1 (Homo sapiens) (UniProt P28482); assay: Inhibition of human MAPK1 at 1 uM using MBP as substrate in presence of [gamma33P]-ATP by HotSpot assay relative to control
Chain of Mitogen-activated protein kinase 1 (Homo sapiens) (P28482 whole entry): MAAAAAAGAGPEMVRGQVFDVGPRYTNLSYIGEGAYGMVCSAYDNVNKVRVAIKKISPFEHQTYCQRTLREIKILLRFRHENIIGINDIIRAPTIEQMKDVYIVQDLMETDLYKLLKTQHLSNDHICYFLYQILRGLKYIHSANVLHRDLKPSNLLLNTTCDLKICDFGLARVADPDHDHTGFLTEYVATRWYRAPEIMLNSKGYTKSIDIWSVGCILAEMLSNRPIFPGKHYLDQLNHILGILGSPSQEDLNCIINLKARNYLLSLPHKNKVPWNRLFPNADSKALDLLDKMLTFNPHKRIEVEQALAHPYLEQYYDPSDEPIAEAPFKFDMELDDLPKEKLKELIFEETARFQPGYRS

[12] = system: EML4-ALK (Homo sapiens), Q9UM73+Q9HC35 [L1198F]; conditions: BaF3, dose 500.0 nmol/L, time 3-5 weeks
[13] = Average plasma concentration in human at 180 mg administered once a day; assay type: ADME; conditions: in vivo
[14] = system: EML4-ALK (Homo sapiens), Q9UM73+Q9HC35 [F1174V]; conditions: BaF3, dose 500.0 nmol/L, time 3-5 weeks
[15] = biological target: Ribosomal protein S6 kinase alpha-1 (Homo sapiens, UniProt Q15418); assay: Inhibition of human RPS6KA1 using KKLNRTLSVA as substrate in presence of [gamma33P]-ATP by HotSpot assay
Chain of Ribosomal protein S6 kinase alpha-1 (Q15418 whole entry): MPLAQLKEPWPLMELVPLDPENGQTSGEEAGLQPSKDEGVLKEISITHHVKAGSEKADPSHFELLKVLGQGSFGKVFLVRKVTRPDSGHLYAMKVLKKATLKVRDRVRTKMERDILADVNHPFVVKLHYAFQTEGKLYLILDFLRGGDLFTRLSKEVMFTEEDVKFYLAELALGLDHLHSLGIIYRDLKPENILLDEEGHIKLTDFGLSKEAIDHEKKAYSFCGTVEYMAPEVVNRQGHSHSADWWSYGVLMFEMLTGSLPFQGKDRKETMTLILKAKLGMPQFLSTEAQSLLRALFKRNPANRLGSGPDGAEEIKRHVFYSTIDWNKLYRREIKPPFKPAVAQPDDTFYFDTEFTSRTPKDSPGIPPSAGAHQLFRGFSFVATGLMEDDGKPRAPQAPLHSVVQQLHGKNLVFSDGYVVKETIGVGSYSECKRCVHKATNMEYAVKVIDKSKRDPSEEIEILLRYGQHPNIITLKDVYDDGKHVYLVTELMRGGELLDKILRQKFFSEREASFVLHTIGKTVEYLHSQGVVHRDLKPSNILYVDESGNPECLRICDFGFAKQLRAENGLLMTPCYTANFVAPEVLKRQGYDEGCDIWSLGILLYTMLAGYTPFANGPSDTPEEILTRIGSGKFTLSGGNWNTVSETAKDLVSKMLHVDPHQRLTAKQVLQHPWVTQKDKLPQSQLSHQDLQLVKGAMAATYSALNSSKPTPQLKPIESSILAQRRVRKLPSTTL

Mus musculus [16] = assay: In vivo inhibition of ALK phosphorylation in SCID Beige mouse xenografted with ALK positive human KARPAS-299 cells at 10 to 50 mg/kg, po administered once daily for 4 days and measured 24 hrs after last dose by ELISA; assay type: functional, organism-based; conditions: dose 10-50 mg/kg, time 5.0 day
[17] = biological target: Eukaryotic elongation factor 2 kinase (Homo sapiens) (UniProt O00418); assay: Inhibition of human EEF2K at 1 uM using RKKFGESEKTKTKEFL as substrate in presence of [gamma33P]-ATP by HotSpot assay relative to control
Chain of Eukaryotic elongation factor 2 kinase (Homo sapiens) (O00418 whole entry): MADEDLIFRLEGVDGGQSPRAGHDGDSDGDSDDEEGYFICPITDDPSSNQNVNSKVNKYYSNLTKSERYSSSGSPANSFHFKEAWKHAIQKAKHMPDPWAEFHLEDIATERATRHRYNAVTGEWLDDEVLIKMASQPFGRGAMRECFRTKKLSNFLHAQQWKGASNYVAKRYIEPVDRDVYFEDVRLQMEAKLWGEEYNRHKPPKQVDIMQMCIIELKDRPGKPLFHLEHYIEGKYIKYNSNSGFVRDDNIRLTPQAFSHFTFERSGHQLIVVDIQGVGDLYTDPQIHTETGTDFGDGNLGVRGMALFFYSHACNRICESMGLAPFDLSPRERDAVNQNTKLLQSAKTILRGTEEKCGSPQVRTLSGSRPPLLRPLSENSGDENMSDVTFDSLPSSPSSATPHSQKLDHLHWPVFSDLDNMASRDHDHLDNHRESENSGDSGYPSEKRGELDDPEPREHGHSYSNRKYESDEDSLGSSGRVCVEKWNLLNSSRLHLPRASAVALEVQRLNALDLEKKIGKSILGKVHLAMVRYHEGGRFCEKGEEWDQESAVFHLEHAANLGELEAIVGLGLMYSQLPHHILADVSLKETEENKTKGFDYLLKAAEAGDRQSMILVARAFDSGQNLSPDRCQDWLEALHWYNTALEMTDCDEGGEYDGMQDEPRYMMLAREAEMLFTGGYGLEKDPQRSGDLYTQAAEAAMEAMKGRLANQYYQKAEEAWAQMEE

[18] = biological target: MAP kinase-interacting serine/threonine-protein kinase 2 (Homo sapiens) (UniProt Q9HBH9); assay: Inhibition of human MNK2 at 1 uM using MBP as substrate in presence of [gamma33P]-ATP by HotSpot assay relative to control
[19] = system: EML4-ALK (Homo sapiens), Q9UM73+Q9HC35 [E1210K]; conditions: BaF3, dose 500.0 nmol/L, time 3-5 weeks
[20] = system: EML4-ALK (Homo sapiens), Q9UM73+Q9HC35 [G1202R]; conditions: BaF3, time 3-5 weeks
Mus musculus [21] = assay: In vivo inhibition of ALK signaling in SCID Beige mouse xenografted with ALK positive human KARPAS-299 cells assessed as reduction in phosphorylated ERK1/2 level at 10 to 50 mg/kg, po administered as single dose and measured at 6 to 24 hrs by immunoblot analysis; assay type: functional, organism-based; conditions: dose 10-50 mg/kg, time 6-24 hrs
[22] = biological target: Interleukin-1 receptor-associated kinase 4 (Homo sapiens) (UniProt Q9NWZ3); assay: Inhibition of human IRAK4 at 1 uM using modified-CGRTGRRNSI-NH2 as substrate in presence of [gamma33P]-ATP by HotSpot assay relative to control
[23] = biological target: CDK6/cyclin D1 (Homo sapiens) (UniProt P24385+Q00534); assay: Inhibition of human CDK6/CyclinD1 at 1 uM using RB protein as substrate in presence of [gamma33P]-ATP by HotSpot assay relative to control; assay type: protein-complex assay
[24] = system: EML4-ALK (Homo sapiens), Q9UM73+Q9HC35 [D1203N]; conditions: BaF3, time 3-5 weeks
[25] = system: EML4-ALK (Homo sapiens), Q9UM73+Q9HC35 [L1198F]; conditions: BaF3, time 3-5 weeks
[26] = biological target: Protein kinase C beta type (Homo sapiens) (UniProt P05771); assay: Inhibition of human PRKCB at 1 uM using ERMRPRKRQGSVRRRV as substrate in presence of [gamma33P]-ATP by HotSpot assay relative to control
[27] = biological target: Serine/threonine-protein kinase D1 (Homo sapiens, UniProt Q15139); assay: Inhibition of human PRKD1 using KKLNRTLSVA as substrate in presence of [gamma33P]-ATP by HotSpot assay
[28] = biological target: Tyrosine-protein kinase Lck (Homo sapiens, UniProt P06239); assay: Inhibition of human LCK using poly (Glu, Tyr)4:1 as substrate in presence of [gamma33P]-ATP by HotSpot assay

Chain of Serine/threonine-protein kinase TAO3 (Homo sapiens) (Q9H2K8 whole entry): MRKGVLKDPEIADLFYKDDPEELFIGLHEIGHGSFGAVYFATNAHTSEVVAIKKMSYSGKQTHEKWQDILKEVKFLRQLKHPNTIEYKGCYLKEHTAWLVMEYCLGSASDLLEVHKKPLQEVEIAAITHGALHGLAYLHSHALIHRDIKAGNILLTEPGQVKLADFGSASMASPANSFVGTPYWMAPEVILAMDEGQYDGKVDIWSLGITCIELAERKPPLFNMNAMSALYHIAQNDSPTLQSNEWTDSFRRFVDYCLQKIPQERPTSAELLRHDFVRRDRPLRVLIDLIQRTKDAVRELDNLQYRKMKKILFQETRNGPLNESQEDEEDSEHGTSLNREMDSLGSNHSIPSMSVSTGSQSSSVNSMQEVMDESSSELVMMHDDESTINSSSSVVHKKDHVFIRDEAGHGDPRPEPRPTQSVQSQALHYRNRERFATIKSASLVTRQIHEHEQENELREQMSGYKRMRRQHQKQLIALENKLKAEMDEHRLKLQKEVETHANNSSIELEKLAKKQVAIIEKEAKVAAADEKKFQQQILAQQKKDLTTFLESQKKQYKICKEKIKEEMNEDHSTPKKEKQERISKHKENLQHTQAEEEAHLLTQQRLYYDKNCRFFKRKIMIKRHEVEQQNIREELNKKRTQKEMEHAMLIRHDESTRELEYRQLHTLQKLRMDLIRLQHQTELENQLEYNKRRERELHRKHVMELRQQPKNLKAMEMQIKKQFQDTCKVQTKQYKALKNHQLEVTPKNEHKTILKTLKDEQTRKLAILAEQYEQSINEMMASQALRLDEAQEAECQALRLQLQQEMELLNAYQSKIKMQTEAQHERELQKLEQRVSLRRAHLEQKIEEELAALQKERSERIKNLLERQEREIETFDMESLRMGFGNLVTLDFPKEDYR

## COc1cc(N2CCC(N3CCN(C)CC3)CC2)ccc1Nc1ncc(Cl)c(Nc2ccccc2P(C)(C)=O)n1 [BRIGATINIB]
[1]
  inhibition: < 90%
[2]
  inhibition: < 90%
[3]
  inhibition: < 90%
In vitro
  IC50: 3.21 µM
  IC90: 9.5 µM
[4]
  inhibition: < 90%
Insulin receptor
  IC50: 9.33 µM
[5]
  inhibition: < 90%
[6]
  inhibition: < 90%
[7]
  inhibition: < 90%
[8]
  inhibition: < 90%
[9]
  IC50: 24 nM
[10]
  inhibition: < 90%
[11]
  inhibition: < 90%
[12]
  inhibition: Active
[13]
  Cave: 1447 nM
[14]
  inhibition: Active
[15]
  IC50: 30 nM
Mus musculus [16]
  Activity: Active
[17]
  inhibition: < 90%
[18]
  inhibition: < 90%
[19]
  inhibition: Active
[20]
  IC90: 762 nM
Mus musculus [21]
  Activity: Active
[22]
  inhibition: < 90%
[23]
  inhibition: < 90%
[24]
  IC90: 276 nM
[25]
  IC90: 242 nM
[26]
  inhibition: < 90%
[27]
  IC50: 197 nM
[28]
  IC50: 512 nM
